Literature values, collected in patent publication US20140023696A1, “TREATMENT FOR IDIOPATHIC PULMONARY FIBROSIS” (priority 2012, published 2014).

Test system: patients with IPF
Conditions: added to prednisone and azathioprine; 12 months of follow up

CC(=O)N[C@@H](CS)C(=O)O [N-acetylcysteine]
effect on FVC and DLCO: slight benefit
